The values that follow come from article PMC11995724, “Antibiotic target discovery by integrated phenotypic and activity-based profiling of electrophilic fragments” (Cell chemical biology, 2025).

A short description of this data set: in vitro. The settings on record: human, hek293t cells.
Protocol: Mammalian cytotoxicity measurement was performed using Cell Titer-Glo 2.0 Cell Viability Assay (Promega, G9243) according to the manufacturer protocol. In brief, mammalian cells were seeded into 384-well white plates (Greiner, 781080) and incubated at 37°C for one day. Compounds from the Cys-Library were dispensed into the assay plate using epMotion 96. The plates were then incubated at 37°C for two days. An equal volume of Cell Titer-Glo 2.0 reagent was added into each well of the assay plate using epMotion 96 and incubated at 22°C for 10 min, followed by luminescence measurement using a Cytation 5 plate reader (BioTek).
Take `C=CC(=O)N1CCC(O)(c2ccccc2)CC1` [1-E15, 1-(4-hydroxy-4-phenylpiperidin-1-yl)prop-2-en-1-one]: the viability at 48 h, 25 µM was 79.8%.
Consider `C=CC(=O)Nc1cc(Cl)cc(C)c1OC` [1-E16, N-(5-chloro-2-methoxy-3-methylphenyl)prop-2-enamide], for which the viability at 48 h, 25 µM was found to be 45.9%.
The value for `C=CC(=O)NCc1c(C(F)(F)F)coc1C` [1-E17, N-{[2-methyl-4-(trifluoromethyl)furan-3-yl]methyl}prop-2-enamide] was 84.9%; that for `C=CC(=O)Nc1ccc(C(N)=O)nc1OC` [1-E18, 6-methoxy-5-(prop-2-enamido)pyridine-2-carboxamide] was 69.6%.
Regarding `C=CC(=O)Nc1ccc2cc(N(C)C)ccc2c1` [1-E19, N-[6-(dimethylamino)naphthalen-2-yl]prop-2-enamide], the viability at 48 h, 25 µM is 46.5%.
On to `C=CC(=O)N1CCC(C(=O)NCc2ccc(Cl)cc2Cl)CC1` [1-E20, N-[(2,4-dichlorophenyl)methyl]-1-(prop-2-enoyl)piperidine-4-carboxamide], for which the viability at 48 h, 25 µM was 95.8%.
Regarding `C=CC(=O)NCC(C)(C)C1CCCCC1` [1-E21, N-(2-cyclohexyl-2-methylpropyl)prop-2-enamide], the viability at 48 h, 25 µM was determined as 75.5%.
Turning to `C=CC(=O)Nc1cnn(-c2ccccc2C)c1C(F)F` [1-E22, N-[5-(difluoromethyl)-1-(2-methylphenyl)-1H-pyrazol-4-yl]prop-2-enamide], the viability at 48 h, 25 µM was 116%.
As to `C=CC(=O)N1CCN(CC(=O)NC)CC1` [1-F03, N-methyl-2-[4-(prop-2-enoyl)piperazin-1-yl]acetamide], the viability at 48 h, 25 µM was 158%.
Consider `C=CC(=O)N(Cc1cccc(Cl)c1F)C(C)C1CCOCC1` (centres unmarked) [1-F04, N-[(3-chloro-2-fluorophenyl)methyl]-N-[1-(oxan-4-yl)ethyl]prop-2-enamide], for which the viability at 48 h, 25 µM was determined as 58.7%.
With `C=CC(=O)Nc1cccc2c1CCN2C(C)=O` [1-F05, N-(1-acetyl-2,3-dihydro-1H-indol-4-yl)prop-2-enamide], the viability at 48 h, 25 µM is 110%.
For `C=CC(=O)NC1CCOC1C` (centres unmarked) [1-F06, N-(2-methyloxolan-3-yl)prop-2-enamide], the viability at 48 h, 25 µM turned out to be 74.6%.
The value for `C=CC(=O)N(C)Cc1ccnn1CC` [1-F07, N-[(1-ethyl-1H-pyrazol-5-yl)methyl]-N-methylprop-2-enamide] was 100%.
The value for `C=CC(=O)Nc1cc(SCc2ccccc2C)ncn1` [1-F08, N-(6-{[(2-methylphenyl)methyl]sulfanyl}pyrimidin-4-yl)prop-2-enamide] was 0.816%; that for `C=CC(=O)N(Cc1c(C)cccc1OC)C1CCCCNC1=O` (centres unmarked) [1-F09, N-[(2-methoxy-6-methylphenyl)methyl]-N-(2-oxoazepan-3-yl)prop-2-enamide] was 85.8%; that for `C=CC(=O)NC(C)Cn1nc(C)cc1C` (centres unmarked) [1-F10, N-[1-(3,5-dimethyl-1H-pyrazol-1-yl)propan-2-yl]prop-2-enamide] was 55.7%.
In the case of `C=CC(=O)N(Cc1nccc2c1CCCC2)C1CCCC(OC)C1` (centres unmarked) [1-F11, N-(3-methoxycyclohexyl)-N-[(5,6,7,8-tetrahydroisoquinolin-1-yl)methyl]prop-2-enamide], the viability at 48 h, 25 µM is 100%.
To `C=CC(=O)NCCC(=O)N1CCC2(CC(=O)c3ccccc3O2)C1` (centres unmarked) [1-F12, N-(3-oxo-3-{4-oxo-3,4-dihydrospiro[1-benzopyran-2,3'-pyrrolidin]-1'-yl}propyl)prop-2-enamide] belongs 82.1%.
Consider `C=CC(=O)N(Cc1cc(F)cc(Cl)c1)C(C)C1CCOCC1` (centres unmarked) [1-F13, N-[(3-chloro-5-fluorophenyl)methyl]-N-[1-(oxan-4-yl)ethyl]prop-2-enamide], for which the viability at 48 h, 25 µM was found to be 110%.
The value for `C=CC(=O)Nc1cn(C)nc1OC(C)C` [1-F14, N-[1-methyl-3-(propan-2-yloxy)-1H-pyrazol-4-yl]prop-2-enamide] was 71.2%; that for `C=CC(=O)N(Cc1nonc1C)CC1C(C)=CCCC1C` (centres unmarked) [1-F15, N-[(2,6-dimethylcyclohex-2-en-1-yl)methyl]-N-[(4-methyl-1,2,5-oxadiazol-3-yl)methyl]prop-2-enamide] was 108%.
For the molecule `C=CC(=O)NC1CCCCC12CCCC2` (centres unmarked) [1-F16, N-{spiro[4.5]decan-6-yl}prop-2-enamide], the viability at 48 h, 25 µM is 77.6%.
In the case of `C=CC(=O)NCC12CC3CC(CC(C3)C1)C2` [1-F17, N-[(adamantan-1-yl)methyl]prop-2-enamide], the viability at 48 h, 25 µM came to 110%.
For the molecule `C=CC(=O)NC1(c2cc(C)no2)CCOCC1` [1-F18, N-[4-(3-methyl-1,2-oxazol-5-yl)oxan-4-yl]prop-2-enamide], the viability at 48 h, 25 µM came to 68.5%.
For `C=CC(=O)N1CCCC1c1c(C)nn(CC(C)C)c1Cl` (centres unmarked) [1-F19, 1-{2-[5-chloro-3-methyl-1-(2-methylpropyl)-1H-pyrazol-4-yl]pyrrolidin-1-yl}prop-2-en-1-one], the viability at 48 h, 25 µM amounted to 119%.
For the molecule `C=CC(=O)N1CCOC(Cn2cncn2)C1` (centres unmarked) [1-F20, 1-{2-[(1H-1,2,4-triazol-1-yl)methyl]morpholin-4-yl}prop-2-en-1-one], the viability at 48 h, 25 µM was 85.3%.
Take `C=CC(=O)Nc1sc2c(c1C(N)=O)CCCCC2` [1-F21, 2-(prop-2-enamido)-4H,5H,6H,7H,8H-cyclohepta[b]thiophene-3-carboxamide]: the viability at 48 h, 25 µM worked out at 113%.
The value for `C=CC(=O)NCC1(C)CCC(C)(C)CC1` [1-F22, N-[(1,4,4-trimethylcyclohexyl)methyl]prop-2-enamide] was 83.2%.
For the molecule `C=CC(=O)N1CSCC1C(=O)N(C)C` (centres unmarked) [1-G03, N,N-dimethyl-3-(prop-2-enoyl)-1,3-thiazolidine-4-carboxamide], the viability at 48 h, 25 µM amounted to 75.4%.
`C=CC(=O)Nc1ccccc1Sc1nncs1` [1-G04, N-[2-(1,3,4-thiadiazol-2-ylsulfanyl)phenyl]prop-2-enamide]: the viability at 48 h, 25 µM came to 32.3%.
`C=CC(=O)NC(c1ccccc1)C1CCC1` (centres unmarked) [1-G05, N-[cyclobutyl(phenyl)methyl]prop-2-enamide]: the viability at 48 h, 25 µM is 76.5%.
As to `C=CC(=O)Nc1ccc(O)c(C(=O)O)c1` [1-G06, 2-hydroxy-5-(prop-2-enamido)benzoic acid], the viability at 48 h, 25 µM amounted to 70.3%.
The value for `C=CC(=O)NCc1nncn1-c1ccccc1` [1-G07, N-[(4-phenyl-4H-1,2,4-triazol-3-yl)methyl]prop-2-enamide] was 77.3%; that for `C=CC(=O)N1CCCC1` [1-G08, 1-(pyrrolidin-1-yl)prop-2-en-1-one] was 70.2%; that for `C=CC(=O)N(Cc1cn(C2CCC2)nn1)c1ccc(F)cc1` [1-G09, N-[(1-cyclobutyl-1H-1,2,3-triazol-4-yl)methyl]-N-(4-fluorophenyl)prop-2-enamide] was 37.6%.
With `C=CC(=O)Nc1cccc2ccccc12` [1-G10, N-(naphthalen-1-yl)prop-2-enamide], the viability at 48 h, 25 µM was determined as 53.4%.
To `C=CC(=O)Nc1nc2cc(C(F)(F)F)ccc2n1Cc1ccco1` [1-G11, N-{1-[(furan-2-yl)methyl]-5-(trifluoromethyl)-1H-1,3-benzodiazol-2-yl}prop-2-enamide] belongs 72.5%; to `C=CC(=O)N1CCCC(C(=O)O)C1` (centres unmarked) [1-G12, 1-(prop-2-enoyl)piperidine-3-carboxylic acid], 60.4%; to `C=CC(=O)Nc1ccc2c(c1)N(C)CC2` [1-G13, N-(1-methyl-2,3-dihydro-1H-indol-6-yl)prop-2-enamide], 67.7%.
With `C=CC(=O)Nc1cccc(C(=O)C(F)F)c1` [1-G14, N-[3-(2,2-difluoroacetyl)phenyl]prop-2-enamide], the viability at 48 h, 25 µM came out at 50.4%.
For the molecule `C=CC(=O)N1CCN(S(C)(=O)=O)[C@H](C)C1` [1-G15, 1-[(3R)-4-methanesulfonyl-3-methylpiperazin-1-yl]prop-2-en-1-one], the viability at 48 h, 25 µM turned out to be 101%.
Turning to `C=CC(=O)NCC1(C)CCS(=O)(=O)CC1` [1-G16, N-[(4-methyl-1,1-dioxo-1lambda6-thian-4-yl)methyl]prop-2-enamide], the viability at 48 h, 25 µM was 83.1%.
The value for `C=CC(=O)Nc1cnc(C2CCCC2)nc1` [1-G17, N-(2-cyclopentylpyrimidin-5-yl)prop-2-enamide] was 33%.
As for `C=CC(=O)NCc1nc2c(s1)CCCC2` [1-G18, N-[(4,5,6,7-tetrahydro-1,3-benzothiazol-2-yl)methyl]prop-2-enamide], the viability at 48 h, 25 µM was 95.8%.
`C=CC(=O)Nc1cnn2cc(C)cnc12` [1-G19, N-{6-methylpyrazolo[1,5-a]pyrimidin-3-yl}prop-2-enamide]: the viability at 48 h, 25 µM is 96.4%.
To `C=CC(=O)Nc1ccc2c(c1)OCCCO2` [1-G20, N-(3,4-dihydro-2H-1,5-benzodioxepin-7-yl)prop-2-enamide] belongs 115%; to `C=CC(=O)NCc1cn(C)c2ccccc12` [1-G21, N-[(1-methyl-1H-indol-3-yl)methyl]prop-2-enamide], 107%; to `C=CC(=O)NC1CCc2nc(CC)nn2C1` (centres unmarked) [1-G22, N-{2-ethyl-5H,6H,7H,8H-[1,2,4]triazolo[1,5-a]pyridin-6-yl}prop-2-enamide], 147%.
Turning to `C=CC(=O)NC(C)(C)c1nc(-c2ccccc2F)c(C)s1` [1-H04, N-{2-[4-(2-fluorophenyl)-5-methyl-1,3-thiazol-2-yl]propan-2-yl}prop-2-enamide], the viability at 48 h, 25 µM turned out to be 73.5%.
To `C=CC(=O)NCC(=O)N1CCCO1` [1-H05, N-[2-(1,2-oxazolidin-2-yl)-2-oxoethyl]prop-2-enamide] belongs 98.5%.
The value for `C=CC(=O)N1CCC(C2CCOC2)C1` (centres unmarked) [1-H06, 1-[3-(oxolan-3-yl)pyrrolidin-1-yl]prop-2-en-1-one] was 70.3%; that for `C=CC(=O)NC[C@H]1CCCN1S(C)(=O)=O` [1-H07, N-{[(2R)-1-methanesulfonylpyrrolidin-2-yl]methyl}prop-2-enamide] was 99.1%; that for `C=CC(=O)NCC1CCOC1` (centres unmarked) [1-H08, N-[(oxolan-3-yl)methyl]prop-2-enamide] was 69.4%.

Usually viability stands for a read-out of living cells in per cent, often relative to untreated cells.
